Laboratory results taken from PubChem BioAssay AID179 (DTP/NCI, 2004).
The source made the active and inactive calls.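 The calls were made as follows: active = compounds giving half or more protection of infected cells from virus-caused growth loss, again on retest; inactive = the rest.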

Test system: CEM cells HIV-1 protection, formazan growth assay
Assay: NCI AIDS Antiviral Assay
Conditions: for IC50: measured here: growth of uninfected CEM cells
How it was run: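 Five concentrations of each compound were applied to infected and uninfected human CEM cells. Protection from HIV-1 was judged from growth measured with a soluble formazan assay.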

| SMILES | EC50 | IC50 | outcome |
| --- | --- | --- | --- |
| COc1ccc(NC(=S)N/N=C(/C)c2ccccn2)cc1 | > 0.2 µM | 0.115 µM |  |
| O=c1[nH]c(=S)[nH]c2[nH]c(=S)[nH]c12 | > 200 µM | > 200 µM |  |
| O=C(c1cccs1)N(C(=S)OCc1ccccn1)c1ccccc1 | > 200 µM | 79.4 µM |  |
| O=C1c2c(ccc3c2CCCC3)CC12Cc1ccc3c(c1C2=O)CCCC3 | > 200 µM | > 200 µM |  |
| NCCCN(CCCCN(CCCN)Cc1ccc2ccccc2c1)Cc1ccc2ccccc2c1 | > 200 µM | 1.07 µM |  |
| O=C1CC2(C(=O)N1CN1CCOCC1)c1ccccc1-c1ccccc12 | > 102 µM | 13.8 µM |  |
| CCOC(=O)C(NC(=O)c1ccccc1)[CH](c1ccc(OC)cc1)[Sn]([c]1ccccc1)([c]1ccccc1)[c]1ccccc1 (configuration not stated) | 34.7 µM | 81.3 µM |  |
| O=C(Nc1ccc(C2=NCCN2)cc1)c1ccc(C(=O)Nc2ccc(C3=NCCN3)cc2)c(F)c1 | 120 µM | > 200 µM |  |
| CCc1c(CN)c(CC)c(CNC2=NCCN2)c(CC)c1CNC1=NCCN1 | > 200 µM | > 200 µM |  |
| CC(=O)OCC1OC(N2C(=O)[C@@H](Oc3ccccc3)[C@H]2c2ccccc2)C(OC(C)=O)C(OC(C)=O)C1OC(C)=O (some centres not stated) | > 200 µM | 174 µM |  |
| COC(=O)c1ccccc1NC(=S)NN(C)C | > 200 µM | 151 µM |  |
| NC(=O)c1nnc2ccc(F)cc2c1N | > 200 µM | 70.8 µM |  |
| CCOC(=O)c1nc2cc(C(F)(F)F)ccc2nc1Nc1ccc(C(=O)OC)s1 | > 50.1 µM | 30.9 µM |  |
| N#C/C=C\c1ccc(F)cc1 | > 245 µM | > 245 µM |  |
| CCCCCC(C(O)C#N)C(O)(C(F)(F)F)C(F)(F)F (configuration not stated) | > 200 µM | 52.5 µM |  |
| O=c1c(O)cccc2cc(O)c(O)c(O)c12 | > 427 µM | 23.4 µM |  |
| CCOC(=O)/C(=C\N1C(=O)/C(=C\C(C)=C\c2ccccc2)SC1=S)C(=O)c1ccccc1 | 11 µM | 13.5 µM |  |
| O=C(O)c1nn(-c2ccccn2)c(O)c1N=Nc1ccc(/C=C\c2ccc(N=Nc3c(C(=O)O)nn(-c4ccccn4)c3O)cc2S(=O)(=O)O)c(S(=O)(=O)O)c1 | > 1.48 µM | > 1.48 µM |  |
| Oc1ccc(/C=C/c2cc(O)cc3c2[C@@H](c2cc(O)cc(O)c2)C(c2ccc(O)cc2)O3)cc1 (some centres not stated) | > 31.6 µM | 16.6 µM |  |
| O=c1n(-c2ccccc2)c(=O)n2n1C1C3C4C5C3C2C5(F)C41 (configuration not stated) | > 200 µM | > 200 µM |  |
| Cc1ccc(/C=C/C(=N/NC(=O)N/N=C(/C=C/c2ccc(C)cc2)C(C)(C)CN2CCCCC2)C(C)(C)CN2CCCCC2)cc1 | > 200 µM | 3.02 µM |  |
| CSC(Cc1ccc2c(c1)Sc1ccccc1O2)=[N+]1CCOCC1 | > 200 µM | 44.7 µM |  |
| N#CCC1(c2ccc(Cl)cc2)NC(=O)c2ccccc21 (configuration not stated) | > 200 µM | 117 µM |  |
| Cc1ccc(/S(Cc2ccccc2)=N\S(=O)(=O)c2ccc(C)cc2)cc1 (configuration not stated) | > 67.6 µM | > 67.6 µM |  |
| C=C1c2nc3ccccc3n2C=C(c2ccc(Cl)cc2)N1c1ccc(OC)cc1 | > 200 µM | 18.6 µM |  |
| CC1C2CC(CC(=O)N2)C1(C)C (configuration not stated) | > 1480 µM | 759 µM |  |
| ClC(c1ccccc1)(c1ccccc1)c1cccc(-c2cccc(C(Cl)(c3ccccc3)c3ccccc3)c2)c1 |  |  | inactive |

| SMILES | EC50 | IC50 | outcome |
| --- | --- | --- | --- |
| Cc1ccc([N+](=O)[O-])cc1N=NC(=O)NNc1cc([N+](=O)[O-])ccc1C | > 200 µM | 32.4 µM |  |
| CCCCCCCSc1nc2c(C(=O)OCC)ncn2c2ccccc12 | > 19.5 µM | > 19.5 µM |  |
| CCOC(=O)C(NC(=O)c1ccccc1)[CH](C)[Sn]([c]1ccccc1)([c]1ccccc1)[c]1ccccc1 (configuration not stated) | > 200 µM | 13.5 µM |  |
| CCOC(=O)/C(=C/c1cccc(OC)c1)N(CC)CC | > 182 µM | > 182 µM |  |
| Cn1cc(NC(=O)[C@H]2CCC(N)=N2)cc1C(=O)NCCC(=N)N |  |  | inactive |
| CC(=O)Nc1cccc(C(CC(=O)O)CC(=O)O)c1 | > 200 µM | > 200 µM |  |
| C1=C(c2ccccc2)O[C@H](COCc2ccccc2)C(OCc2ccccc2)[C@@H]1OCc1ccccc1 (some centres not stated) |  |  | inactive |
| CCOP(=S)(NN=C1CCCC1)OCC | > 200 µM | > 200 µM |  |
| CN1CCN(C(=S)N(C(=O)c2ccc(Cl)cc2)c2ccccc2)CC1 | > 13.8 µM | > 13.8 µM |  |
| CCN(C(=S)N[C@H](C(=O)N[C@@H](C)C(=O)OC)C(C)C)c1ccccc1 | 0.575 µM | 29.5 µM |  |
| C[n+]1c(-c2ccc(NC(=O)c3ccc(C(=O)Nc4ccc(-c5cn6ccccc6[n+]5C)cc4)cc3)cc2)cn2ccccc21 | > 2.63 µM | 1.66 µM |  |
| CCOc1ccc(-n2c(=O)n3c(Nc4ccc(Cl)cc4)nc4c(c(=O)n(C)c(=O)n4C)n3c2=O)cc1 | > 100 µM | 66.1 µM |  |
| O=[N+]([O-])c1ccccc1Sc1ccccc1 | > 100 µM | 79.4 µM |  |
| CC(=O)OC1COC(n2c(=S)n(-c3ccccc3)c(=O)c3cc(Br)ccc32)C(OC(C)=O)C1OC(C)=O (configuration not stated) | > 17 µM | > 17 µM |  |
| C=C1C(=O)OC2C1CCC(C)C1C=CC(=O)C12C (configuration not stated) | > 200 µM | 1.07 µM |  |
| Cc1ccc(-c2c3nc(c(-c4ccc(C)cc4)c4ccc([nH]4)c(-c4ccc(OCC5COC(C)(C)O5)cc4)c4nc(c(-c5ccc(C)cc5)c5ccc2[nH]5)C=C4)C=C3)cc1 (configuration not stated) | > 100 µM | > 100 µM |  |
| Cc1cc(Cc2cc(C)c(NC(=O)C(=O)C3CCC4=C(SC5C=CC=CC5N4)C3=O)c(C(C)C)c2)cc(C(C)C)c1NC(=O)C(=O)C1CCC2=C(SC3C=CC=CC3N2)C1=O (configuration not stated) | > 41.7 µM | 12 µM |  |
| Clc1nc(NC23CC4CC(CC(C4)C2)C3)nc(NC23CC4CC(CC(C4)C2)C3)n1 | > 200 µM | 52.5 µM |  |
| CC1(C)/C(=C/N=O)N(O)C(C)(C)N1O | > 200 µM | 120 µM |  |
| Cc1ccc(S(=O)(=O)c2c(N)c3nc4ccccc4n3c3nc4ccccc4nc23)cc1 | > 4.57 µM | > 4.57 µM |  |
| CCOC(=O)/C(C#N)=N\Nc1ccc(-n2c(C)nc3ccc(Br)cc3c2=O)cc1 | > 182 µM | 75.9 µM |  |
| O=S1(=O)c2ccccc2-c2nccc3ccnc1c23 |  |  | inactive |
| CCOC(=O)/C(=C/c1ccc(Cl)cc1)N(CC)CC | > 126 µM | > 126 µM |  |
| CCOC(=O)/C(=C/c1ccc(C(F)(F)F)cc1)N(CC)CC | > 158 µM | 64.6 µM |  |
| CN(C)C1C(=O)C(C(=O)NC[N+]23CCO[B-]2(c2ccc(Cl)cc2)OCC3)=C(O)C2(O)C(=O)C3=C(O)c4c(O)cccc4C(C)(O)C3CC12 (configuration not stated) | > 27.5 µM | > 27.5 µM |  |
| Nc1ccn(C2CC3OCC3O2)c(=O)n1 (configuration not stated) | > 200 µM | > 200 µM |  |
| N[C@@H]1c2c(I)sc(I)c2C(=O)[C@@H]1O | > 200 µM | 5.25 µM |  |

| SMILES | EC50 | IC50 | outcome |
| --- | --- | --- | --- |
| O=C(Nc1ccc(S(=O)(=O)c2ccc(NC(=O)c3cc(S(=O)(=O)O)ccc3O)cc2)cc1)c1cc(S(=O)(=O)O)ccc1O (tested in a mixture with another compound) | 162 µM | > 200 µM |  |
| C#C[C@]1(O)CCC2C3CCc4cc(Oc5nc(F)nc(-n6c(C)nc7cc8ccccc8cc76)n5)ccc4C3CCC21C (some centres not stated) | > 200 µM | 28.2 µM |  |
| CC1=NOC2(C1)/C(=N/O)CCC/C2=N\O (configuration not stated) | > 200 µM | > 200 µM |  |
| Cc1ccc(/C=C/C(=O)c2c([O-])on[n+]2-c2ccccc2)cc1 | > 200 µM | 2.63 µM |  |
| COc1ccc(C(=O)Sc2c(-c3ccccc3)c(=O)n(-c3ccccc3)c(=S)n2-c2ccccc2)cc1 | > 200 µM | 3.31 µM |  |
| CC1OC(OC2C(O)COC(OC3C(C)OC(OC4C(OC(=O)[C@]56CCC(C)(C)C[C@@H]5C5=CCC7[C@@]8(C)C[C@H](O)[C@H](OC9OC(CO)C(O)C(OC%10OC(CO)C(O)C(O)C%10O)C9O)[C@@](C)(CO)[C@@H]8CC[C@@]7(C)[C@]5(C)CC6)OCC(O)C4O)C(O)C3OC3OCC(O)C(O)C3O)C2O)C(O)C(O)C1O (some centres not stated) | > 17 µM | > 17 µM |  |
| COC(=O)C1c2c(C)cc3n2C(C=C(C)C3)C1C(=O)OC (configuration not stated) | 75.9 µM | 107 µM |  |
| CC[C@@H]1CC[C@@H]2[C@H](CC[C@]3(C)[C@@H](OC(C)=O)CC[C@@H]23)[C@H]1C(=O)OC | > 200 µM | 24.5 µM |  |
| O=S(=O)(O)SCCCNCCCCCCCCNCCCSS(=O)(=O)O | > 200 µM | 10 µM |  |
| Cc1nc(N)nc(N)c1-c1ccc(Cl)c(Cl)c1 | > 200 µM |  |  |
| C[n+]1c(/C=C/c2ccc(/C=N/NC(=O)c3ccc(C(=O)N/N=C/c4ccc(/C=C/c5cn6ccccc6[n+]5C)cc4)cc3)cc2)cn2ccccc21 | > 3.55 µM | > 3.55 µM |  |
| O=c1cc(CSc2c(-c3ccccc3)c(=O)n(-c3ccccc3)c(=S)n2-c2ccccc2)[nH]c(=O)[nH]1 | > 200 µM | > 200 µM |  |
| FC(F)=C(c1ccc(-c2ccc(Cl)cc2)cc1)C(F)(F)F | > 200 µM | 20.9 µM |  |
| CCCc1cc(=O)oc2c3c(cc(OC)c12)O[C@H](C)[C@H](C)C3=O | > 200 µM | 47.9 µM |  |
| COCC(C)(C)N=CN1CCc2ccccc2C1 | > 1000 µM | > 1000 µM |  |
| CCC(=O)/C=C/c1ccccc1 | > 200 µM | 93.3 µM |  |
| O=[N+]([O-])c1ccccc1Nc1ccccc1[N+](=O)[O-] | > 52.5 µM | > 52.5 µM |  |
| CCCCN(C)C(=O)C1=C(C)NC(C)=C(C(=O)N(C)CCCC)C1 | > 200 µM | 102 µM |  |
| CC(C)=CCCC1(C)C=Cc2c(c(C)cc3c2[nH]c2ccccc23)O1 (configuration not stated) | > 21.9 µM | 12 µM |  |
| COC(CN1C=C(Sc2ccccc2)CC1)OC | > 97.7 µM | 16.6 µM |  |
| COc1cc2cc[n+](C)c(Cc3ccc(Oc4cc(Cc5c6cc(OC)c(OC)cc6cc[n+]5C)ccc4OC)cc3)c2cc1OC |  |  | inactive |
| OC1CN2CCC[C@@H](O)[C@@H]2C1O (some centres not stated) | > 200 µM | > 200 µM |  |
| NCCCN(CCCCN(CCCN)Cc1ccccc1)Cc1ccccc1 | 64.6 µM | 70.8 µM |  |
| CCOC(=O)c1sc(SSc2nc(C)c(C(=O)OCC)s2)nc1C | > 200 µM | > 200 µM |  |
| CC(=O)N=C1N(/C=C2\C(=O)Oc3ccccc3C2=O)C(=O)/C(=C/c2cccc([N+](=O)[O-])c2)N1C | > 100 µM | 97.7 µM |  |
